Experiments:
Assay type in all cases: functional
MDA-MB-435 = experiment: Cytotoxicity against human MDA-MB-435 cells assessed as cell growth at 0.1 uM incubated for 48 hrs by sulforhodamine B assay relative to control; conditions: MDA-MB-435, 48 h, read-out: Activity
T47D = experiment: Cytotoxicity against human T47D cells assessed as cell growth at 100 uM incubated for 48 hrs by sulforhodamine B assay relative to control; conditions: read-out: Activity
DU-145 [1] = experiment: Cytotoxicity against human DU145 cells assessed as cell growth at 0.1 uM incubated for 48 hrs by sulforhodamine B assay relative to control; conditions: DU-145, 48 h, read-out: Activity
HL-60(TB) = experiment: Cytotoxicity against human HL-60(TB) cells assessed as cell growth at 1 uM incubated for 48 hrs by sulforhodamine B assay relative to control; conditions: HL-60, 48 h, read-out: Activity
NCI-H322M = experiment: Cytotoxicity against human NCI-H322M cells assessed as cell growth at 100 uM incubated for 48 hrs by sulforhodamine B assay relative to control; conditions: read-out: Activity
DU-145 [2] = experiment: Cytotoxicity against human DU145 cells assessed as cell growth at 1 uM incubated for 48 hrs by sulforhodamine B assay relative to control; conditions: DU-145, 48 h, read-out: Activity
OVCAR-8 [3] = experiment: Cytotoxicity against human OVCAR8 cells assessed as cell growth at 0.1 uM incubated for 48 hrs by sulforhodamine B assay relative to control; conditions: OVCAR-8, 48 h, read-out: Activity
IGROV-1 = experiment: Cytotoxicity against human IGROV1 cells assessed as cell growth at 1 uM incubated for 48 hrs by sulforhodamine B assay relative to control; conditions: IGROV-1, 48 h, read-out: Activity
NCI-H460 [4] = experiment: Cytotoxicity against human NCI-H460 cells assessed as cell growth at 0.1 uM incubated for 48 hrs by sulforhodamine B assay relative to control; conditions: NCI-H460, 48 h, read-out: Activity
CCRF-CEM = experiment: Cytotoxicity against human CCRF-CEM cells assessed as cell growth at 1 uM incubated for 48 hrs by sulforhodamine B assay relative to control; conditions: read-out: Activity
SK-MEL-2 [5] = experiment: Cytotoxicity against human SK-MEL-2 cells assessed as cell growth at 10 uM incubated for 48 hrs by sulforhodamine B assay relative to control; conditions: SK-MEL-2, 48 h, read-out: Activity
LOX IMVI = experiment: Cytotoxicity against human LOXIMVI cells assessed as cell growth at 0.01 uM incubated for 48 hrs by sulforhodamine B assay relative to control; conditions: read-out: Activity
NCI-H226 = experiment: Cytotoxicity against human NCI-H226 cells incubated for 48 hrs by sulforhodamine B assay; conditions: NCI-H226, 48 h
SK-MEL-2 [6] = experiment: Cytotoxicity against human SK-MEL-2 cells assessed as cell growth at 0.01 uM incubated for 48 hrs by sulforhodamine B assay relative to control; conditions: SK-MEL-2, 48 h, read-out: Activity
NCI/ADR-RES = experiment: Cytotoxicity against human NCI/ADR-RES cells assessed as cell growth at 10 uM incubated for 48 hrs by sulforhodamine B assay relative to control; conditions: read-out: Activity
U-251 = experiment: Cytotoxicity against human U251 cells assessed as cell growth at 0.01 uM incubated for 48 hrs by sulforhodamine B assay relative to control; conditions: U-251, 48 h, read-out: Activity
HT-29 = experiment: Cytotoxicity against human HT-29 cells assessed as cell growth at 10 uM incubated for 48 hrs by sulforhodamine B assay relative to control; conditions: HT-29, 48 h, read-out: Activity
NCI-H460 [7] = experiment: Cytotoxicity against human NCI-H460 cells assessed as cell growth at 1 uM incubated for 48 hrs by sulforhodamine B assay relative to control; conditions: NCI-H460, 48 h, read-out: Activity
HCC 2998 = experiment: Cytotoxicity against human HCC2998 cells assessed as cell growth at 0.1 uM incubated for 48 hrs by sulforhodamine B assay relative to control; conditions: HCC 2998, 48 h, read-out: Activity
SF-295 = experiment: Cytotoxicity against human SF295 cells assessed as cell growth at 0.01 uM incubated for 48 hrs by sulforhodamine B assay relative to control; conditions: SF-295, 48 h, read-out: Activity
OVCAR-8 [8] = experiment: Cytotoxicity against human OVCAR8 cells incubated for 48 hrs by sulforhodamine B assay; conditions: OVCAR-8, 48 h
Malme-3M = experiment: Cytotoxicity against human MALME-3M cells assessed as cell growth at 0.01 uM incubated for 48 hrs by sulforhodamine B assay relative to control; conditions: read-out: Activity
SF-268 = experiment: Cytotoxicity against human SF268 cells assessed as cell growth at 0.1 uM incubated for 48 hrs by sulforhodamine B assay relative to control; conditions: SF-268, 48 h, read-out: Activity
M14 = experiment: Cytotoxicity against human M14 cells assessed as cell growth at 0.01 uM incubated for 48 hrs by sulforhodamine B assay relative to control; conditions: M14, 48 h, read-out: Activity
SNB-75 = experiment: Cytotoxicity against human SNB75 cells assessed as cell growth at 0.1 uM incubated for 48 hrs by sulforhodamine B assay relative to control; conditions: SNB-75, 48 h, read-out: Activity
UACC-62 = experiment: Cytotoxicity against human UACC62 cells assessed as cell growth at 10 uM incubated for 48 hrs by sulforhodamine B assay relative to control; conditions: UACC-62, 48 h, read-out: Activity
MDA-MB-468 = experiment: Cytotoxicity against human MDA-MB-468 cells assessed as cell growth at 10 uM incubated for 48 hrs by sulforhodamine B assay relative to control; conditions: MDA-MB-468, 48 h, read-out: Activity
ACHN = experiment: Cytotoxicity against human ACHN cells assessed as cell growth at 0.1 uM incubated for 48 hrs by sulforhodamine B assay relative to control; conditions: read-out: Activity
HCT-15 = experiment: Cytotoxicity against human HCT15 cells incubated for 48 hrs by sulforhodamine B assay; conditions: HCT-15, 48 h
SN12C = experiment: Cytotoxicity against human SN12C cells assessed as cell growth at 0.1 uM incubated for 48 hrs by sulforhodamine B assay relative to control; conditions: read-out: Activity
A498 = experiment: Cytotoxicity against human A498 cells assessed as cell growth at 10 uM incubated for 48 hrs by sulforhodamine B assay relative to control; conditions: A498, 48 h, read-out: Activity
EKVX = experiment: Cytotoxicity against human EKVX cells assessed as cell growth at 10 uM incubated for 48 hrs by sulforhodamine B assay relative to control; conditions: read-out: Activity
SF-539 = experiment: Cytotoxicity against human SF539 cells assessed as cell growth at 1 uM incubated for 48 hrs by sulforhodamine B assay relative to control; conditions: SF-539, 48 h, read-out: Activity

With `COc1ccc(-c2nocc2-c2cc(OC)c(OC)c(OC)c2)cc1` as the molecule, how does the growth at 0.1 µM (MDA-MB-435) read?
Its growth at 0.1 µM is 3%.

What about the growth at 100 µM (T47D) of the same molecule?
The growth at 100 µM was -4%.

And the growth at 0.1 µM (DU-145 [1])?
The growth at 0.1 µM was 71%.

And the growth at 1 µM (HL-60(TB))?
Its growth at 1 µM is -17%.

What about the growth at 100 µM (NCI-H322M) of the same molecule?
The growth at 100 µM was 18%.

What about the growth at 1 µM (DU-145 [2]) of the same molecule?
The growth at 1 µM was 17%.

And the growth at 0.1 µM (OVCAR-8 [3])?
Its growth at 0.1 µM is 74%.

What about the growth at 1 µM (IGROV-1) of the same molecule?
Its growth at 1 µM is 47%.

And the growth at 0.1 µM (NCI-H460 [4])?
Its growth at 0.1 µM is 30%.

What about the growth at 1 µM (CCRF-CEM) of the same molecule?
Its growth at 1 µM is 24%.

What about the growth at 10 µM (SK-MEL-2 [5]) of the same molecule?
Its growth at 10 µM is 43%.

What about the growth at 0.01 µM (LOX IMVI) of the same molecule?
The growth at 0.01 µM was 94%.

And the GI50 (NCI-H226; read-out: GI50)?
Its GI50 is 15.5 µM.

And the LC50 (NCI-H226; read-out: LC50)?
Its LC50 is over 100 µM.

And the TGI (NCI-H226; read-out: TGI)?
Its TGI is 58.3 µM.

What about the GI50 (NCI-H226; read-out: pGI50 (converted)) of the same molecule?
The GI50 was 15.5 µM.

And the LC50 (NCI-H226; read-out: pLC50 (converted))?
The LC50 was over 100 µM.

And the TGI (NCI-H226; read-out: pTGI (converted))?
Its TGI is 58.9 µM.

What about the growth at 0.01 µM (SK-MEL-2 [6]) of the same molecule?
Its growth at 0.01 µM is 99%.

What about the growth at 10 µM (NCI/ADR-RES) of the same molecule?
Its growth at 10 µM is 9%.

What about the growth at 0.01 µM (U-251) of the same molecule?
Its growth at 0.01 µM is 99%.

And the growth at 10 µM (HT-29)?
The growth at 10 µM was 3%.

And the growth at 1 µM (NCI-H460 [7])?
The growth at 1 µM was 11%.

And the growth at 0.1 µM (HCC 2998)?
The growth at 0.1 µM was 62%.

And the growth at 0.01 µM (SF-295)?
The growth at 0.01 µM was 84%.

What about the GI50 (OVCAR-8 [8]; read-out: GI50) of the same molecule?
The GI50 was 0.327 µM.

And the CC50 (OVCAR-8 [8]; read-out: LC50 (the source's name))?
Its CC50 is over 100 µM.

What about the TGI (OVCAR-8 [8]; read-out: TGI) of the same molecule?
Its TGI is over 100 µM.

And the GI50 (OVCAR-8 [8]; read-out: pGI50 (converted))?
Its GI50 is 0.324 µM.

What about the CC50 (OVCAR-8 [8]; read-out: pLC50 (the source's name) (converted)) of the same molecule?
Its CC50 is over 100 µM.

And the TGI (OVCAR-8 [8]; read-out: pTGI)?
Its TGI is over 100 µM.

What about the growth at 0.01 µM (Malme-3M) of the same molecule?
Its growth at 0.01 µM is 86%.

And the growth at 0.1 µM (SF-268)?
Its growth at 0.1 µM is 63%.

And the growth at 0.01 µM (M14)?
The growth at 0.01 µM was 90%.

And the growth at 0.1 µM (SNB-75)?
The growth at 0.1 µM was 47%.

And the growth at 10 µM (UACC-62)?
The growth at 10 µM was 5%.

What about the growth at 10 µM (MDA-MB-468) of the same molecule?
The growth at 10 µM was 3%.

And the growth at 0.1 µM (ACHN)?
The growth at 0.1 µM was 62%.

And the GI50 (HCT-15; read-out: GI50)?
The GI50 was 0.044 µM.

What about the LC50 (HCT-15; read-out: LC50) of the same molecule?
The LC50 was over 100 µM.

And the TGI (HCT-15; read-out: TGI)?
The TGI was over 100 µM.

What about the GI50 (HCT-15; read-out: pGI50 (converted)) of the same molecule?
Its GI50 is 0.0437 µM.

And the LC50 (HCT-15; read-out: pLC50 (converted))?
The LC50 was over 100 µM.

And the TGI (HCT-15; read-out: pTGI)?
The TGI was over 100 µM.

And the growth at 0.1 µM (SN12C)?
Its growth at 0.1 µM is 88%.

And the growth at 10 µM (A498)?
Its growth at 10 µM is -13%.

What about the growth at 10 µM (EKVX) of the same molecule?
The growth at 10 µM was 32%.

And the growth at 1 µM (SF-539)?
Its growth at 1 µM is 1%.
